One experiment has as its system NCI-H226 cells. In words: NCI-H226 proliferation assay (in house). Type of experiment: cell-based. The following applies: Homo sapiens, 120 h, 5 days, Cell TiterGlo, 20-point 1:2 dilution from 20 μM. As for the experimental part: NCI-H226 Proliferation Assay
NCI-H226 cells were obtained from American Type Culture Collection (ATCC, CRL-5826) and cultured in RPMI 1640 with L-glutamine (Corning, 10-040-CV) supplemented with 10% fetal bovine serum (Gibco, 10438-026) and 1% penicillin-streptomycin (Gibco, 15070063). Cells were trypsinized, resuspended in growth medium, and diluted to a concentrated of 10,000 cells/mL. 500 cells, 50 μL of cell suspension, per well were then plated in a white 384-well plate (Corning) and incubated at 37° C., 5% CO2. After 24 hours incubation, 100 nL of test compounds in DMSO, 20-point 1:2 dilution starting from 20 μM (final concentration) in triplicate, were transferred to each well using an Agilent Bravo instrument outfitted with a pintool head. Cells were incubated at 37° C., 5% CO2 for 5 days followed by the addition of 30 μL of Cell TiterGlo (Promega; diluted 1:6 in water) to each well and luminescence values recorded using an EnVision plate reader. […]
In general terms: ATP-based viability assays read luminescence as a measure of living cells.

Experiment [1] deals with transcriptional activity of TEADs. Briefly: TEAD reporter assay (MCF7 TEAD-LUC reporter cells). Type of experiment: cell-based. The following applies: Homo sapiens, 24 hours, BrightGlo luminescence. As to the method: MCF7 TEAD-LUC reporter cells were obtained from BPS Bioscience, Inc. and cultured in DMEM medium (Corning, 10-013-CV) supplemented with 10% fetal bovine serum (Gibco, 10438-026), 1% penicillin-streptomycin (Gibco, 15070063), 1% non-essential amino acids (Gibco, 15070063), and 10 μg/mL insulin (Sigma, 10516). Cells were trypsinized, resuspended in growth medium, and diluted to a concentrated of 100,000 cells/mL. 5,000 cells, 50 μL of cell suspension, per well were then plated in a white 384-well plate (Corning) and incubated at 37° C., 5% CO2. After 24 hours incubation, 100 nL of test compounds in DMSO, 20-point 1:2 dilution starting from 20 μM (final concentration) in triplicate, were transferred to each well using an Agilent Bravo instrument outfitted with a pintool head. Cells were incubated at 37° C., 5% CO2 for 24 hours followed by the addition of 30 μL of BrightGlo (Promega; diluted 1:3 in water) to each well and luminescence values recorded using an EnVision plate reader.
The in vitro assay results of the compounds in the present invention were included in Table 1. The compounds described herein, inhibited the transcriptional activity of TEADs, as assessed by decreased luminance from a TEAD reporter cell line (MCF7 TEAD-LUC) in response to compound treatment.
Background: Reporter assays use an easily measured gene product as a stand-in for the process of interest.

The values that follow come from patent US20250206722A1, “SMALL MOLECULE INHIBITORS OF TEA DOMAIN FAMILY MEMBERS” (The Scripps Research Institute, priority 2022, published 2025).

Usually IC50 stands for the concentration needed to halve the response being measured. For the compound `C=C(C)C(=O)N1CCN(c2nccnc2Nc2ccc(C(F)(F)F)nc2)CC1` [Example 177, 2-methyl-1-(4-(3-((6-(trifluoromethyl)pyridin-3-yl)amino)pyrazin-2-yl)piperazin-1-yl)prop-2-en-1-one], the results for the concentration for half-maximal inhibition (IC50) (with NCI-H226 cells; in experiment [1]) were greater than 20 µM and greater than 20000 nM, respectively.
The corresponding values for `N#C/C=C/C(=O)N1CCN(c2nccnc2Nc2ccc(C(F)(F)F)nc2)CC1` [Example 183, (E)-4-oxo-4-(4-(3-((6-(trifluoromethyl)pyridin-3-yl)amino)pyrazin-2-yl)piperazin-1-yl)but-2-enenitrile] are 0.422 µM and 33.9 nM.
As to `C=CC(=O)N1CC(Nc2nccnc2Nc2ccc(C(F)(F)F)nc2)C1` [Example 62, 1-(3-((3-((6-(trifluoromethyl)pyridin-3-yl)amino)pyrazin-2-yl)amino)azetidin-1-yl)prop-2-en-1-one], the figures for the IC50 (in the experiment with NCI-H226 cells; in experiment [1]) were 8.67 µM and 10.7 nM, respectively.
The matching figures for `C=C(CN1CCC(c2nccnc2Oc2ccc(C(F)(F)F)nc2)CC1)C(=O)O` [Example 82, 2-((4-(3-((6-(trifluoromethyl)pyridin-3-yl)oxy)pyrazin-2-yl)piperidin-1-yl)methyl)acrylic acid]: greater than 20 µM and greater than 20000 nM.
Regarding `C=C(F)C(=O)N1CCC(c2cccnc2Oc2cnc(C(F)(F)F)nc2)CC1` [Example 160, 2-fluoro-1-(4-(2-((2-(trifluoromethyl)pyrimidin-5-yl)oxy)pyridin-3-yl)piperidin-1-yl)prop-2-en-1-one], the IC50 with NCI-H226 cells was found to be 2.94 µM; in experiment [1], 1650 nM.
The matching figures for `C=C(F)C(=O)N1CC(Oc2nccnc2Nc2ccc(C(F)(F)F)nc2)C1` [Example 65, 2-fluoro-1-(3-((3-((6-(trifluoromethyl)pyridin-3-yl)amino)pyrazin-2-yl)oxy)azetidin-1-yl)prop-2-en-1-one]: 1.85 µM and 18.6 nM.
Consider `C=CC(=O)N1CCN(c2nccnc2C(O)c2ccc(C(F)(F)F)cc2)CC1` (stereo not drawn) [Example 97, 1-(4-(3-(hydroxy(4-(trifluoromethyl)phenyl)methyl)pyrazin-2-yl)piperazin-1-yl)prop-2-en-1-one], for which the IC50 in the experiment on NCI-H226 cells came out at 0.019 µM; in experiment [1] it was 3 nM.
As for `C=CC(=O)N1CCC(n2nc(C(=O)c3ccc(C(F)(F)F)cc3)cc2C)CC1` [Example 165, 1-(4-(5-methyl-3-(4-(trifluoromethyl)benzoyl)-1H-pyrazol-1-yl)piperidin-1-yl)prop-2-en-1-one], the figures for the IC50 (in the experiment with NCI-H226 cells; in experiment [1]) were 5 µM and 19.8 nM, respectively.
The matching figures for `C=CC(=O)N1CCN(c2nccnc2C(=O)N2CC3(CC(C(F)(F)F)C3)C2)CC1` [Example 101, 1-(4-(3-(6-(trifluoromethyl)-2-azaspiro[3.3]heptane-2-carbonyl)pyrazin-2-yl)piperazin-1-yl)prop-2-en-1-one]: 3.76 µM and 13.4 nM.
`C=CC(=O)N1CCN(c2nccnc2C(=O)c2ccc(C(F)(F)F)cc2)CC1` [Example 95, 1-(4-(3-(4-(trifluoromethyl)benzoyl)pyrazin-2-yl)piperazin-1-yl)prop-2-en-1-one]: the values for the IC50 (in the experiment on NCI-H226 cells; in experiment [1]) were 0.012 µM and 1.3 nM, respectively.
The corresponding values for `O=C(COC(F)(F)F)N1CCN(c2nccnc2Nc2ccc(C(F)(F)F)cc2)CC1` [Example 190, 2-(trifluoromethoxy)-1-(4-(3-((4-(trifluoromethyl)phenyl)amino)pyrazin-2-yl)piperazin-1-yl)ethan-1-one] are 0.994 µM and 12.7 nM.
Regarding `C=C(F)C(=O)N1CCN(c2cccnc2Nc2ccc(C(F)(F)F)nc2)CC1` [Example 144, 2-fluoro-1-(4-(2-((6-(trifluoromethyl)pyridin-3-yl)amino)pyridin-3-yl)piperazin-1-yl)prop-2-en-1-one], the figures for the IC50 (with NCI-H226 cells; in experiment [1]) were 0.031 µM and 8.1 nM, respectively.
